“And” between values parts separate entries of the source, which are not always exact repeats. Equal entries are not always repeated.
Experiment: Single dose oral capsule pharmacokinetics of BHV-3500 in dogs (plasma LC-MS/MS)
Format: in vivo, beagle dogs
Set-up: key to t1/2 / Tmax / Cmax / AUC0-4 hr: X = no plasma exposure
Conditions: for increase of plasma level versus no vehicle (Group 4): Group 5, 50 mg with Vehicle 6
Protocol: The pharmacokinetics (PK) of BHV-3500 after a single oral capsule of BHV-3500 in dogs were investigated.
After each dose, blood samples (approximately 3 mL from the jugular vein) for determination of plasma levels of BHV-3500 were obtained from of each dog at six time points (pre-dose; 15, 30, and 60 minutes and 2 and 4 hours post-dose. EDTA was used as the anticoagulant. Plasma samples were frozen at approximately −70′C until analyzed.
For the determination of BHV-3500 in plasma, a 50 μL aliquot from each sample was transferred into the appropriate well of a 96-well plate to which 10 μL of 50% acetonitrile (ACN) in water was added, followed by 250 μL of internal standard solution (10 ng/mL BHV-3500-d8 in ACN). After sealing the plate and vortexing for approximately 5 minutes, the plate was centrifuged at 4,000 rpm for 10 minutes at 4±4° C. A portion (100 μL) of the resulting supernatant was transferred to into the appropriate well (containing 300 μL 0.15% formic acid in water) of another 96-well plate. This plate was sealed and its contents mixed prior to instrumental analysis.
Freshly prepared BHV-3500 standard curves and QC samples were analyzed along with the study samples. Instrument calibrators were prepared by adding 10 μL of a stock BHV-3500 solution to 50 μL of blank dog plasma. Blank dog plasma was sourced from BioIVT (Hicksville, NY) and stored frozen at −20° C. Nominal calibrator concentrations ranged from 2.00 to 200 ng/mL. QC samples were prepared at concentrations of 6.00, 50.0 and 150 ng/mL. Calibrators and QC samples were processed for analysis following the extraction procedure described above.
Calibrator, QC and study samples were analyzed under LC-S/MS instrument conditions detailed in Table 7.
Calibration curves were calculated from the linear regression (weighting factor of 1/x2) of the analyte to internal standard peak area ratios versus the analyte concentrations. Concentrations of analyte in the samples were determined using the peak area ratios and the regression parameters of the calibration curves.
Individual animal plasma BHV-3500 concentration data at scheduled (nominal) sampling times were analyzed using the non-compartmental model f r extravascular administration with Phoenix WinNonlin software (Version 8.1; Certara, Princeton, NJ).
Elimination rate constant values (λz) were calculated by log-linear regression on data points of the terminal phase (using Phoenix WinNonlin's Best Fit Lambda Z Calculation Method option) when allowed by the data; the plasma elimination half-life (t1/2) was calculated as ln(2)/λz. Area under the plasma concentration-time curve values from time zero to the concentration at the 4 hour time point (AUC0-4 hr) were calculated by the linear-up/log-down trapezoidal rule.
Nominal dose levels were used for PK analysis. The PK parameters listed below were evaluated (as applicable and when allowed by the data). • Elimination half-life (t1/2) • Time of occurrence of maximum plasma concentration (Tmax) • Maximum plasma concentration (Cmax) • Area under plasma concentration-time curve [0 to the 4 hour time point; AUC0-4hr]

[1] = Group 1, oral capsule, 20 mg BHV-3500, no vehicle, average
[2] = Group 1, oral capsule, 20 mg BHV-3500, no vehicle, median
[3] = Group 3, oral capsule, 20 mg BHV-3500 in 25 mg DDM, individual dogs
[4] = Group 5, oral capsule, 50 mg BHV-3500 in 900 mg vehicle of Formulation 2 (SEDDS excipients), individual dogs

SMILES: Cc1cc(C[C@@H](NC(=O)N2CCC(c3cc4ccccc4[nH]c3=O)CC2)C(=O)N2CCN(C3CCN(C)CC3)CC2)cc2cn[nH]c12 [BHV-3500, (R)—N-(3-(7-methyl-1H indazol-5-yl)-1-(4-(1-methylpiperidin-4-yl)piperazin-1-yl)-1-oxopropan-2-yl)-4-(2-oxo-1,2 dihydroquinolin-3-yl)piperidine-1-carboxamide]
- plasma levels at all time points (Group 1, oral capsule, 20 mg BHV-3500, no vehicle): BQL (BQL = below quantitation limit (2.0 ng/mL))
- BHV-3500 Concentration in Dog Plasma (Group 1, oral capsule, 20 mg BHV-3500, no vehicle, 0.25 h post-dose, average): BQL (BQL = below quantitation limit (2.0 ng/mL))
- BHV-3500 Concentration in Dog Plasma (Group 1, oral capsule, 20 mg BHV-3500, no vehicle, 0.25 h post-dose, individual dogs): BQL (BQL = below quantitation limit (2.0 ng/mL))
- BHV-3500 Concentration in Dog Plasma (Group 1, oral capsule, 20 mg BHV-3500, no vehicle, 0.5 h post-dose, average): BQL (BQL = below quantitation limit (2.0 ng/mL))
- BHV-3500 Concentration in Dog Plasma (Group 1, oral capsule, 20 mg BHV-3500, no vehicle, 0.5 h post-dose, individual dogs): BQL (BQL = below quantitation limit (2.0 ng/mL))
- BHV-3500 Concentration in Dog Plasma (Group 1, oral capsule, 20 mg BHV-3500, no vehicle, 1 h post-dose, average): BQL (BQL = below quantitation limit (2.0 ng/mL))
- BHV-3500 Concentration in Dog Plasma (Group 1, oral capsule, 20 mg BHV-3500, no vehicle, 1 h post-dose, individual dogs): BQL (BQL = below quantitation limit (2.0 ng/mL))
- BHV-3500 Concentration in Dog Plasma (Group 1, oral capsule, 20 mg BHV-3500, no vehicle, 2 h post-dose, average): BQL (BQL = below quantitation limit (2.0 ng/mL))
- BHV-3500 Concentration in Dog Plasma (Group 1, oral capsule, 20 mg BHV-3500, no vehicle, 2 h post-dose, individual dogs): BQL (BQL = below quantitation limit (2.0 ng/mL))
- BHV-3500 Concentration in Dog Plasma (Group 1, oral capsule, 20 mg BHV-3500, no vehicle, 4 h post-dose, average): BQL (BQL = below quantitation limit (2.0 ng/mL))
- BHV-3500 Concentration in Dog Plasma (Group 1, oral capsule, 20 mg BHV-3500, no vehicle, 4 h post-dose, individual dogs): BQL (BQL = below quantitation limit (2.0 ng/mL))
- AUC0-4 hr [1]: X
- Cmax [1]: X
- Tmax [2]: X
- t1/2 [2]: X
- BHV-3500 Concentration in Dog Plasma (Group 2, oral capsule, 20 mg BHV-3500 in 900 mg vehicle of Formulation 2 (SEDDS excipients), 0.25 h post-dose, average): BQL (BQL = below quantitation limit (2.0 ng/mL))
- BHV-3500 Concentration in Dog Plasma (Group 2, oral capsule, 20 mg BHV-3500 in 900 mg vehicle of Formulation 2 (SEDDS excipients), 0.25 h post-dose, individual dogs): BQL (BQL = below quantitation limit (2.0 ng/mL))
- BHV-3500 Concentration in Dog Plasma (Group 2, oral capsule, 20 mg BHV-3500 in 900 mg vehicle of Formulation 2 (SEDDS excipients), 0.5 h post-dose, average): BQL (BQL = below quantitation limit (2.0 ng/mL))
- BHV-3500 Concentration in Dog Plasma (Group 2, oral capsule, 20 mg BHV-3500 in 900 mg vehicle of Formulation 2 (SEDDS excipients), 0.5 h post-dose, individual dogs): BQL (BQL = below quantitation limit (2.0 ng/mL))
- BHV-3500 Concentration in Dog Plasma (Group 2, oral capsule, 20 mg BHV-3500 in 900 mg vehicle of Formulation 2 (SEDDS excipients), 1 h post-dose, individual dogs): BQL (BQL = below quantitation limit (2.0 ng/mL))
- BHV-3500 Concentration in Dog Plasma (Group 2, oral capsule, 20 mg BHV-3500 in 900 mg vehicle of Formulation 2 (SEDDS excipients), 2 h post-dose, individual dogs): BQL (BQL = below quantitation limit (2.0 ng/mL)) and 19.4 ng/mL and 8.94 ng/mL
- BHV-3500 Concentration in Dog Plasma (Group 2, oral capsule, 20 mg BHV-3500 in 900 mg vehicle of Formulation 2 (SEDDS excipients), 4 h post-dose, individual dogs): BQL (BQL = below quantitation limit (2.0 ng/mL))
- Cmax (Group 2, oral capsule, 20 mg BHV-3500 in 900 mg vehicle of Formulation 2 (SEDDS excipients), individual dogs): 19.4 ng/mL and 8.94 ng/mL
- BHV-3500 Concentration in Dog Plasma (Group 3, oral capsule, 20 mg BHV-3500 in 25 mg DDM, 0.25 h post-dose, average): BQL (BQL = below quantitation limit (2.0 ng/mL))
- BHV-3500 Concentration in Dog Plasma (Group 3, oral capsule, 20 mg BHV-3500 in 25 mg DDM, 0.25 h post-dose, individual dogs): BQL (BQL = below quantitation limit (2.0 ng/mL))
- BHV-3500 Concentration in Dog Plasma (Group 3, oral capsule, 20 mg BHV-3500 in 25 mg DDM, 0.5 h post-dose, individual dogs): BQL (BQL = below quantitation limit (2.0 ng/mL))
- BHV-3500 Concentration in Dog Plasma (Group 3, oral capsule, 20 mg BHV-3500 in 25 mg DDM, 1 h post-dose, individual dogs): BQL (BQL = below quantitation limit (2.0 ng/mL))
- BHV-3500 Concentration in Dog Plasma (Group 3, oral capsule, 20 mg BHV-3500 in 25 mg DDM, 2 h post-dose, individual dogs): 9.60 ng/mL and BQL (BQL = below quantitation limit (2.0 ng/mL)) and 28.2 ng/mL
- BHV-3500 Concentration in Dog Plasma (Group 3, oral capsule, 20 mg BHV-3500 in 25 mg DDM, 4 h post-dose, individual dogs): BQL (BQL = below quantitation limit (2.0 ng/mL))
- Cmax [3]: 9.60 ng/mL and 14.0 ng/mL and 28.2 ng/mL
- Tmax [3]: 30 min
- BHV-3500 Concentration in Dog Plasma (Group 4, oral capsule, 50 mg BHV-3500, no vehicle, 0.25 h post-dose, average): BQL (BQL = below quantitation limit (2.0 ng/mL))
- BHV-3500 Concentration in Dog Plasma (Group 4, oral capsule, 50 mg BHV-3500, no vehicle, 0.25 h post-dose, individual dogs): BQL (BQL = below quantitation limit (2.0 ng/mL))
- BHV-3500 Concentration in Dog Plasma (Group 4, oral capsule, 50 mg BHV-3500, no vehicle, 0.5 h post-dose, average): BQL (BQL = below quantitation limit (2.0 ng/mL))
- BHV-3500 Concentration in Dog Plasma (Group 4, oral capsule, 50 mg BHV-3500, no vehicle, 0.5 h post-dose, individual dogs): BQL (BQL = below quantitation limit (2.0 ng/mL))
- BHV-3500 Concentration in Dog Plasma (Group 4, oral capsule, 50 mg BHV-3500, no vehicle, 1 h post-dose, individual dogs): 4.25 ng/mL and 3.55 ng/mL
- BHV-3500 Concentration in Dog Plasma (Group 4, oral capsule, 50 mg BHV-3500, no vehicle, 2 h post-dose, individual dogs): 4.35 ng/mL and 6.61 ng/mL
- BHV-3500 Concentration in Dog Plasma (Group 4, oral capsule, 50 mg BHV-3500, no vehicle, 4 h post-dose, average): BQL (BQL = below quantitation limit (2.0 ng/mL))
- BHV-3500 Concentration in Dog Plasma (Group 4, oral capsule, 50 mg BHV-3500, no vehicle, 4 h post-dose, individual dogs): BQL (BQL = below quantitation limit (2.0 ng/mL))
- Cmax (Group 4, oral capsule, 50 mg BHV-3500, no vehicle, individual dogs): 4.35 ng/mL and 6.61 ng/mL
- increase of plasma level versus no vehicle (Group 4) (1 hour post-dose): 3.4 ×
- increase of plasma level versus no vehicle (Group 4) (2 hours post-dose): 6.6 ×
- BHV-3500 Concentration in Dog Plasma (Group 5, oral capsule, 50 mg BHV-3500 in 900 mg vehicle of Formulation 2 (SEDDS excipients), 0.25 h post-dose, average): BQL (BQL = below quantitation limit (2.0 ng/mL))
- BHV-3500 Concentration in Dog Plasma (Group 5, oral capsule, 50 mg BHV-3500 in 900 mg vehicle of Formulation 2 (SEDDS excipients), 0.25 h post-dose, individual dogs): BQL (BQL = below quantitation limit (2.0 ng/mL))
- BHV-3500 Concentration in Dog Plasma (Group 5, oral capsule, 50 mg BHV-3500 in 900 mg vehicle of Formulation 2 (SEDDS excipients), 0.5 h post-dose, average): BQL (BQL = below quantitation limit (2.0 ng/mL))
- BHV-3500 Concentration in Dog Plasma (Group 5, oral capsule, 50 mg BHV-3500 in 900 mg vehicle of Formulation 2 (SEDDS excipients), 0.5 h post-dose, individual dogs): BQL (BQL = below quantitation limit (2.0 ng/mL))
- BHV-3500 Concentration in Dog Plasma (Group 5, oral capsule, 50 mg BHV-3500 in 900 mg vehicle of Formulation 2 (SEDDS excipients), 1 h post-dose, individual dogs): 6.19 ng/mL and 5.55 ng/mL and 22.7 ng/mL
- BHV-3500 Concentration in Dog Plasma (Group 5, oral capsule, 50 mg BHV-3500 in 900 mg vehicle of Formulation 2 (SEDDS excipients), 2 h post-dose, individual dogs): 13.8 ng/mL and 6.90 ng/mL and 101 ng/mL
- BHV-3500 Concentration in Dog Plasma (Group 5, oral capsule, 50 mg BHV-3500 in 900 mg vehicle of Formulation 2 (SEDDS excipients), 4 h post-dose, individual dogs): 6.88 ng/mL and 2.62 ng/mL and 14.4 ng/mL
- AUC0-4 hr [4]: 32.8 ng·h/mL and 17.7 ng·h/mL and 161 ng·h/mL
- Cmax [4]: 13.8 ng/mL and 6.90 ng/mL and 101 ng/mL
- BHV-3500 Concentration in Dog Plasma (Group 6, oral capsule, 50 mg BHV-3500 in 25 mg DDM, 0.25 h post-dose, average): BQL (BQL = below quantitation limit (2.0 ng/mL))
- BHV-3500 Concentration in Dog Plasma (Group 6, oral capsule, 50 mg BHV-3500 in 25 mg DDM, 0.25 h post-dose, individual dogs): BQL (BQL = below quantitation limit (2.0 ng/mL))
- BHV-3500 Concentration in Dog Plasma (Group 6, oral capsule, 50 mg BHV-3500 in 25 mg DDM, 0.5 h post-dose, average): BQL (BQL = below quantitation limit (2.0 ng/mL))
- BHV-3500 Concentration in Dog Plasma (Group 6, oral capsule, 50 mg BHV-3500 in 25 mg DDM, 0.5 h post-dose, individual dogs): BQL (BQL = below quantitation limit (2.0 ng/mL))
- BHV-3500 Concentration in Dog Plasma (Group 6, oral capsule, 50 mg BHV-3500 in 25 mg DDM, 1 h post-dose, individual dogs): BQL (BQL = below quantitation limit (2.0 ng/mL))

Source: patent US12622968B2, “Formulation for oral delivery of proteins, peptides and small molecules with poor permeability” (R.P. Scherer Technologies, LLC, priority 2019, dated 2026)
